In PubChem BioAssay AID488998 (The Scripps Research Institute Molecular Screening Center, 2010):
Active and inactive are the calls of the source.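 Rule for the calls: active = IC50 at or below 10 µM; inactive = IC50 above 10 µM.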

Target: Lytic switch protein BZLF1 (Epstein-Barr virus (strain B95-8)) (UniProt P03206)
Experiment: EBV ZTA inhibitors, concentration series – biochemical, fluorescence polarization, dose response, round 0, counter-screen for EBNA-1 inhibitor project, late-stage follow-up (AID 488998)
Conditions: purified Zta–Cy5 ZRE DNA binding

Chain of Lytic switch protein BZLF1 (Epstein-Barr virus (strain B95-8)) (P03206 whole entry, looked up): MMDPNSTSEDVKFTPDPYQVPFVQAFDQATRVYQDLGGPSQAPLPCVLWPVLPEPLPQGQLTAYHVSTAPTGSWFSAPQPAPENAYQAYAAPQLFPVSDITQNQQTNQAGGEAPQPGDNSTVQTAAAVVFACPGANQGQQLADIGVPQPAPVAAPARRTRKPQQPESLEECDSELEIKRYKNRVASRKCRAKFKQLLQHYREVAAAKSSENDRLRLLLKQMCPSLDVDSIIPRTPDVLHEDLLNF

IC50 | SMILES
> 111 µM (inactive) | COc1cccc(C(=O)Nc2nc3ccc(S(C)(=O)=O)cc3s2)c1
> 111 µM (inactive) | CS(=O)(=O)c1ccc2nc(NC(=O)c3cccc(F)c3)sc2c1
> 111 µM (inactive) | Cc1cccc(C(=O)Nc2nc3ccc(S(C)(=O)=O)cc3s2)c1
> 111 µM (inactive) | CS(=O)(=O)c1ccc2nc(NC(=O)c3ccc(Cl)cc3)sc2c1
> 111 µM (inactive) | CS(=O)(=O)c1ccc2nc(NC(=O)c3ccccc3Cl)sc2c1
> 111 µM (inactive) | CS(=O)(=O)c1ccc2nc(NC(=O)c3ccccc3F)sc2c1
> 111 µM (inactive) | Cc1ccc(C(=O)Nc2nc3ccc(S(C)(=O)=O)cc3s2)cc1
> 111 µM (inactive) | COc1ccccc1C(=O)Nc1nc2ccc(S(C)(=O)=O)cc2s1
> 111 µM (inactive) | Cc1ccc(C(=O)Nc2nc3ccc(Br)cc3s2)cc1C
> 111 µM (inactive) | CS(=O)(=O)c1ccc2nc(NC(=O)c3cccc(Cl)c3)sc2c1
> 111 µM (inactive) | Cc1ccccc1C(=O)Nc1nc2ccc(S(C)(=O)=O)cc2s1
> 111 µM (inactive) | COc1ccc2nc(NC(=O)c3ccc(C)c(C)c3)sc2c1
> 111 µM (inactive) | Cc1ccc(C(=O)Nc2nc3cc(F)ccc3s2)cc1C
> 111 µM (inactive) | Cc1ccc(C(=O)Nc2nc3cc(Br)ccc3s2)cc1C
> 111 µM (inactive) | COc1ccc(C(=O)Nc2nc3ccc(S(C)(=O)=O)cc3s2)cc1

More lines, now with the values behind:

SMILES | IC50
COc1ccc2sc(NC(=O)c3ccc(C)c(C)c3)nc2c1 | > 111 µM (inactive)
COc1cccc2sc(NC(=O)c3ccc(C)c(C)c3)nc12 | > 111 µM (inactive)
Cc1cc(C(=O)CSc2nnnn2C)c(C)n1CC1CCCO1 (stereo not given) | > 111 µM (inactive)
CCn1c(C)cc(C(=O)CSc2nnnn2-c2ccccc2)c1C | > 111 µM (inactive)
Cc1cc(C(=O)CSc2nnnn2C2CC2)c(C)n1CC1CCCO1 (stereo not given) | > 111 µM (inactive)
Cc1cc(C(=O)CSc2nnnn2-c2cccc(F)c2)c(C)n1CC1CCCO1 (stereo not given) | > 111 µM (inactive)
O=C(CSc1nnnn1-c1ccccc1)c1ccn(CC2CCCO2)c1 (stereo not given) | > 111 µM (inactive)
Cc1ccccc1-n1nnnc1SCC(=O)c1cc(C)n(CC2CCCO2)c1C (stereo not given) | > 111 µM (inactive)
COCCn1c(C)cc(C(=O)CSc2nnnn2-c2ccccc2)c1C | > 111 µM (inactive)
Cc1ccc(-n2nnnc2SCC(=O)c2cc(C)n(CC3CCCO3)c2C)cc1 (stereo not given) | > 111 µM (inactive)
Cc1cccc(-n2nnnc2SCC(=O)c2cc(C)n(CC3CCCO3)c2C)c1 (stereo not given) | > 111 µM (inactive)
COc1ccc(-n2nnnc2SCC(=O)c2cc(C)n(CC3CCCO3)c2C)cc1 (stereo not given) | > 111 µM (inactive)
Cc1cc(C(=O)CSc2nnnn2-c2ccc(Cl)cc2)c(C)n1CC1CCCO1 (stereo not given) | > 111 µM (inactive)
Cc1cc(C(=O)CSc2nnnn2-c2ccccc2)c(C)n1Cc1cccs1 | > 111 µM (inactive)
Cc1cc(C(=O)CSc2nnnn2-c2ccccc2)c(C)n1C | > 111 µM (inactive)
